A short description of the series: Solubility in water. Format: physicochemical.

Turning to `Cl.O=C1[C@@H]2[C@H]3CC[C@H](C3)[C@@H]2C(=O)N1C[C@@H]1CCCC[C@H]1CN1CCN(c2nsc3ccccc23)CC1` [Compound 1, N-[4-[4-(1,2-benzisothiazol-3-yl)-1-piperazinyl]-(2R,3R)-2,3-tetramethylene-butyl]-(1′R,2′S,3′R,4′S)-2,3-bicyclo[2,2,1]heptanedicarboximide hydrochloride], the solubility in water result is on record as “low”.

The values above are taken from patent publication US9469630B2, “Sustained-release formulation for injection” (SUMITOMO DAINIPPON PHARMA CO., LTD., priority 2010, dated 2016).
